In patent US8779142B2, “Azabicyclo compound and salt thereof” (Taiho Pharmaceutical Co., Ltd., priority 2009, dated 2014):
pIC50: −log10 of the molar value. Read-outs that look alike come from different tables or passages of the source.

What was measured:
[1] = target: human HSP90 alpha protein (HSP90 N-terminal protein, amino acids 2-236) (Homo sapiens (Human), UniProt P07900); experiment: Measurement of HSP90-binding activity (AlphaScreen competitive assay, biotin-labeled geldanamycin); conditions: read-out: HSP-binding activity IC50
SK-BR-3 cells = experiment: Measurement of cell growth inhibition (crystal violet staining method); type: cell-based; conditions: Homo sapiens
[2] = concentration inhibiting binding of biotin-labeled geldanamycin (40 nM) to purified HSP90 to 50% of control
[3] = breast cancer SK-BR-3 cells, 72 hr culture with test substance

SMILES | pIC50 [1, 2] | pIC50 (SK-BR-3 cells; [3]) | pIC50 [1] | pIC50 (SK-BR-3 cells; SK-BR-3, 72 h)
CC(C)c1nn(-c2ccc(C(N)=O)cc2CN2CCOCC2)c2nccc(-n3cnc(-c4cnn(C)c4)c3)c12 [Example 127, 4-{3-Isopropyl-4-(4-(1-methyl-1H-pyrazol-4-yl)-1H-imidazol-1-yl)-1H-pyrazolo[3,4-b]pyridin-1-yl}-3-(morpholinomethyl)benzamide] | 6.64 | 5.81 |  | 
COc1ccc2ccn(-c3ccc(C(N)=O)c(NC4CCC(O)CC4)c3)c2c1 (centres unmarked) [Comparative Example 1, reference compound] | < 4.00 | < 5.00 |  | 
Cn1cc(-c2cn(-c3ccnc4c3c(C(F)(F)F)nn4-c3ccc(C(N)=O)cc3-c3ccccc3)cn2)cn1 [Example 172, 6-{4-(4-(1-Methyl-1H-pyrazol-4-yl)-1H-imidazol-1-yl)-3-(trifluoromethyl)-1H-pyrazolo[3,4-b]pyridin-1-yl}biphenyl-3-carboxamide] | 5.97 | 6.06 |  | 
CC(C)c1nn(-c2ccc(C(N)=O)c(Nc3ccc(C(=O)N4CCCC4)cc3)c2)c2nccc(-c3cnc4ccccc4c3)c12 [Example 34, 4-{3-Isopropyl-4-(quinolin-3-yl)-1H-pyrazolo[3,4-b]pyridin-1-yl}-2-{4-(pyrrolidine-1-carbonyl)phenylamino}benzamide] | 6.24 | 7.30 |  | 
CC(C)c1nn(-c2ccc(C(N)=O)c(N[C@H]3CC[C@H](O)CC3)c2)c2ccnc(-c3cnc4ccccc4c3)c12 [Example 4, 2-(Trans-4-hydroxycyclohexylamino)-4-{3-isopropyl-4-(quinolin-3-yl)-1H-pyrazolo[4,3-c]pyridin-1-yl}benzamide] |  |  | 5.80 | 6.09
NC(=O)c1ccc(-n2nc(C(F)(F)F)c3c(-n4cnc(-c5cccnc5)c4)ccnc32)c(NC2CCC2)c1 [Example 182, 3-(Cyclobutylamino)-4-{4-(4-(pyridin-3-yl)-1H-imidazol-1-yl)-3-(trifluoromethyl)-1H-pyrazolo[3,4-b]pyridin-1-yl}benzamide] | 6.70 | 6.89 |  | 
CC(=O)N[C@H]1CC[C@H](Nc2cc(-n3cc(C)c4c(-c5cnc6ccccc6c5)ccnc43)ccc2C(N)=O)CC1 [Example 62, 2-(Trans-4-acetamidocyclohexylamino)-4-{3-methyl-4-(quinolin-3-yl)-1H-pyrrolo[2,3-b]pyridin-1-yl}benzamide] | 6.21 | 6.68 |  | 
Cn1cc(-c2cn(-c3ccnc4c3c(C(F)(F)F)nn4-c3ccc(C(N)=O)cc3Cl)cn2)cn1 [Example 153, 3-Chloro-4-{4-(4-(1-methyl-1H-pyrazol-4-yl)-1H-imidazol-1-yl)-3-(trifluoromethyl)-1H-pyrazolo[3,4-b]pyridin-1-yl}benzamide] | 6.89 | 6.62 |  | 
CCn1cc(-c2cn(-c3ccnc4c3c(C(F)(F)F)nn4-c3ccc(C(N)=O)cc3N)cn2)cn1 [Example 184, 3-Amino-4-{4-(4-(1-ethyl-1H-pyrazol-4-yl)-1H-imidazol-1-yl)-3-(trifluoromethyl)-1H-pyrazolo[3,4-b]pyridin-1-yl}benzamide] | 6.64 | 6.39 |  | 
Cc1c(-n2nc(C(C)C)c3c(-n4cnc(-c5cnn(C)c5)c4)ccnc32)ccc(C(N)=O)c1F [Example 130, 2-Fluoro-4-{3-isopropyl-4-(4-(1-methyl-1H-pyrazol-4-yl)-1H-imidazol-1-yl)-1H-pyrazolo[3,4-b]pyridin-1-yl}-3-methylbenzamide] | 6.16 | 5.72 |  | 
CC(C)Nc1cc(C(N)=O)ccc1-n1nc(C(F)(F)F)c2c(-n3cnc(-c4cccnc4)c3)ccnc21 [Example 181, 3-(Isopropylamino)-4-{4-(4-(pyridin-3-yl)-1H-imidazol-1-yl)-3-(trifluoromethyl)-1H-pyrazolo[3,4-b]pyridin-1-yl}benzamide] | 6.85 | 6.92 |  | 
Cc1cc(C(N)=O)ccc1-n1nc(C(F)(F)F)c2c(-c3cnc4ccccc4c3)ccnc21 [Example 82, 3-Methyl-4-{4-(quinolin-3-yl)-3-(trifluoromethyl)-1H-pyrazolo[3,4-b]pyridin-1-yl}benzamide] | 6.08 | 6.64 |  | 
CCNc1cc(-n2nc(C(C)C)c3c(-n4cnc(-c5cnn(C(F)F)c5)c4)ccnc32)ccc1C(N)=O [Example 147, 4-{4-(4-(1-(Difluoromethyl)-1H-pyrazol-4-yl)-1H-imidazol-1-yl)-3-isopropyl-1H-pyrazolo[3,4-b]pyridin-1-yl}-2-(ethylamino)benzamide] | 6.09 | 6.44 |  | 
CC(C)c1nn(-c2ccc(C(N)=O)c(N(O)C3CCCCC3)c2)c2nccc(-n3cnc(-c4cnn(C)c4)c3)c12 [Example 89, 2-(Hydroxycyclohexylamino)-4-{3-isopropyl-4-(4-(1-methyl-1H-pyrazol-4-yl)-1H-imidazol-1-yl)-1H-pyrazolo[3,4-b]pyridin-1-yl}benzamide] | 7.15 | 8.00 |  | 
CCNc1c(C(N)=O)ccc(-n2nc(C(C)C)c3c(-n4cnc(-c5cnn(C)c5)c4)ccnc32)c1CC [Example 133, 3-Ethyl-2-(ethylamino)-4-{3-isopropyl-4-(4-(1-methyl-1H-pyrazol-4-yl)-1H-imidazol-1-yl)-1H-pyrazolo[3,4-b]pyridin-1-yl}benzamide] | 6.80 | 6.82 |  | 
CCNc1cc(-n2nc(C(F)(F)F)c3c(-n4cnc(-c5cccnc5)c4)ccnc32)ccc1C(N)=O [Example 178, 2-(Ethylamino)-4-{4-(4-(pyridin-3-yl)-1H-imidazol-1-yl)-3-(trifluoromethyl)-1H-pyrazolo[3,4-b]pyridin-1-yl}benzamide] | 6.28 | 7.10 |  | 
C=Cc1cc(C(N)=O)ccc1-n1nc(C(C)C)c2c(-n3cnc(-c4cnn(C)c4)c3)ccnc21 [Example 101, 4-{3-Isopropyl-4-(4-(1-methyl-1H-pyrazol-4-yl)-1H-imidazol-1-yl)-1H-pyrazolo[3,4-b]pyridin-1-yl}-3-vinylbenzamide] | 6.66 | 6.54 |  | 
CCCNc1cc(C(N)=O)ccc1-n1nc(C(F)(F)F)c2c(-n3cnc(-c4cnn(C)c4)c3)ccnc21 [Example 163, 4-{4-(4-(1-Methyl-1H-pyrazol-4-yl)-1H-imidazol-1-yl)-3-(trifluoromethyl)-1H-pyrazolo[3,4-b]pyridin-1-yl}-3-(propylamino)benzamide] | 7.00 | 7.22 |  | 
CCc1cc(C(N)=O)ccc1-n1nc(C(C)C)c2c(-n3cnc(-c4cnn(C)c4)c3)ccnc21 [Example 102, 3-Ethyl-4-{3-isopropyl-4-(4-(1-methyl-1H-pyrazol-4-yl)-1H-imidazol-1-yl)-1H-pyrazolo[3,4-b]pyridin-1-yl}benzamide] | 6.68 | 6.77 |  | 
CCc1cn(-c2ccc(C(N)=O)c(NCCN3CCOCC3)c2)c2nccc(-c3cnc4ccccc4c3)c12 [Example 73, 4-{3-Ethyl-4-(quinolin-3-yl)-1H-pyrrolo[2,3-b]pyridin-1-yl}-2-(2-morpholinoethylamino)benzamide] | 6.23 | 6.44 |  | 
Cn1cc(-c2cn(-c3ccnc4c3c(C(F)(F)F)nn4-c3ccc(C(N)=O)cc3Br)cn2)cn1 [Example 170, 3-Bromo-4-{4-(4-(1-methyl-1H-pyrazol-4-yl)-1H-imidazol-1-yl)-3-(trifluoromethyl)-1H-pyrazolo[3,4-b]pyridin-1-yl}benzamide] | 6.68 | 6.43 |  | 
CCNc1cc(C(N)=O)ccc1-n1nc(C(F)(F)F)c2c(-n3cnc(-c4cnn(C)c4)c3)ccnc21 [Example 162, 3-(Ethylamino)-4-{4-(4-(1-methyl-1H-pyrazol-4-yl)-1H-imidazol-1-yl)-3-(trifluoromethyl)-1H-pyrazolo[3,4-b]pyridin-1-yl}benzamide] | 6.96 | 7.05 |  | 
CC(C)Nc1cc(-n2nc(C(C)C)c3c(-n4cnc(-c5cccnc5)c4)ccnc32)ccc1C(N)=O [Example 140, 4-{3-Isopropyl-4-(4-(pyridin-3-yl)-1H-imidazol-1-yl)-1H-pyrazolo[3,4-b]pyridin-1-yl}-2-(isopropylamino)benzamide] | 6.12 | 6.72 |  | 
Cn1cc(-c2cn(-c3ccnc4c3c(C(F)(F)F)nn4-c3ccc(C(N)=O)cc3NC3CCCC3)cn2)cn1 [Example 166, 3-(Cyclopentylamino)-4-{4-(4-(1-methyl-1H-pyrazol-4-yl)-1H-imidazol-1-yl)-3-(trifluoromethyl)-1H-pyrazolo[3,4-b]pyridin-1-yl}benzamide] | 6.85 | 6.96 |  | 
Cn1cc(-c2cn(-c3ccnc4c3c(C(F)(F)F)nn4-c3ccc(C(N)=O)cc3NC3CCC3)cn2)cn1 [Example 165, 3-(Cyclobutylamino)-4-{4-(4-(1-methyl-1H-pyrazol-4-yl)-1H-imidazol-1-yl)-3-(trifluoromethyl)-1H-pyrazolo[3,4-b]pyridin-1-yl}benzamide] | 6.92 | 7.15 |  | 
Cc1cc(-n2nc(C(C)C)c3c(-c4cnc5ccccc5c4)ccnc32)ccc1C(N)=O [Example 81, 4-{3-Isopropyl-4-(quinolin-3-yl)-1H-pyrazolo[3,4-b]pyridin-1-yl}-2-methylbenzamide] | 5.99 | 6.20 |  | 
CCc1cn(-c2ccc(C(N)=O)c(NC3CCN(C)CC3)c2)c2nccc(-c3cnc4ccccc4c3)c12 [Example 71, 4-{3-Ethyl-4-(quinolin-3-yl)-1H-pyrrolo[2,3-b]pyridin-1-yl}-2-(1-methylpiperidin-4-ylamino)benzamide] | 6.60 | 7.00 |  | 
Cc1cn(-c2ccc(C(N)=O)c(N[C@@H]3CCCC[C@H]3N)c2)c2nccc(-c3cnc4ccccc4c3)c12 (relative stereo) [Example 64, 2-(Trans-2-aminocyclohexylamino)-4-{3-methyl-4-(quinolin-3-yl)-1H-pyrrolo[2,3-b]pyridin-1-yl}benzamide] | 6.38 | 6.23 |  | 
